Legend:
Assay type in all cases: physicochemical
[1] = Compatibility with cosmetics additives (absence of precipitates and/or severe discolorations); conditions: 18.75% water
Description: (§1) To 100 parts by weight of a preparation consisting of 18.75% by weight of K sorbate, 31.25% by weight of phenoxyethanol, 31.25% by weight of benzyl alcohol and 18.75% by weight of demineralized water were added, in individual experiments, up to 4 parts by weight of a number of cosmetics additives, and the compatibility was tested (test for absence of precipitates and/or severe discolorations). […] The above-mentioned preparation was incompatible with the antimicrobial active ingredients Vantocil IB (polyhexamethylene biguanide), bronopol and dibromodicyanobutane since in each case the addition of these active ingredients and storage led to severe discoloration of the solution.
as §1, with “of 15%” for “of 18.75%”, “sorbate, 30%” for “sorbate, 31.25%”, “of Na benzoate, 5%” for “of phenoxyethanol, 31.25%”, “of phenoxyethanol” for “of benzyl alcohol”, “and 50%” for “and 18.75%”, “The abovementioned” for “The above-mentioned”
A preparation consisting of 18.75% by weight of K sorbate, 28.75% by weight of benzyl alcohol, 28.75% by weight of phenoxyethanol, 18.75% by weight of demineralized water and 5% by weight of cosmetics additive was prepared.

[2] = as above; conditions: Example 6B: up to 4 parts additive to 100 parts of 15% K sorbate, 30% Na benzoate, 5% phenoxyethanol, 50% water
[3] = Colour stability, Hazen colour number; conditions: addition to liquid concentrates, Examples 5D-5F
Description: The Hazen colour number is the number of mg of platinum [as potassium hexachloroplatinate (IV) containing cobalt (II) chloride hexahydrate in a ratio of 1.246:1 dissolved in 1000 ml of aqueous hydrochloric acid] which has virtually the same colour as the sample when the path length is the same.
Improvement in the Colour Stability of the Liquid Concentrates According to the Invention

[4] = Example 6A: up to 4 parts additive to 100 parts of 18.75% K sorbate, 31.25% phenoxyethanol, 31.25% benzyl alcohol
[5] = Example 6C: 5% additive in 18.75% K sorbate, 28.75% benzyl alcohol, 28.75% phenoxyethanol

Compound	compatibility of additive with preparation [1, 4]	compatibility of additive with preparation [2]	compatibility of additive with preparation [1, 5]	effect of additive on colour stability [3]
O=C1O[C@H]([C@@H](O)CO)C([O-])=C1O.[Na+] [sodium ascorbate]	sufficiently compatible	sufficiently compatible	–	–
CCCCNC(=O)OCC#CI [iodopropynylbutyl carbamate]	sufficiently compatible	sufficiently compatible	–	–
O=[N+]([O-])C(Br)(CO)CO [bronopol]	incompatible	incompatible	–	–
vitamin E	sufficiently compatible	sufficiently compatible	–	–
CCOC(=O)c1ccc(O)cc1 [ethylparaben]	sufficiently compatible	sufficiently compatible	–	–
CCCOC(=O)c1ccc(O)cc1 [propylparaben]	–	–	sufficiently compatible	–
N#CCCC(Br)(C#N)CBr (stereo not drawn) [dibromodicyanobutane]	incompatible	incompatible	–	–
COc1ccc(O)c(C(C)(C)C)c1 [3-tert-butyl-4-hydroxyanisole]	sufficiently compatible	sufficiently compatible	–	–
Cc1cc(C(C)(C)C)c(O)c(C(C)(C)C)c1 [2,6-di-tert-butyl-p-cresol]	sufficiently compatible	sufficiently compatible	–	–
CC(C)(CO)[C@@H](O)C(=O)NCCCO [dexpanthenol]	sufficiently compatible	sufficiently compatible	–	–
O=C([O-])C(O)c1ccccc1.[K+] (stereo not drawn) [potassium salt of mandelic acid]	sufficiently compatible	sufficiently compatible	–	–
Cl/C=C\C[N+]12CN3CN(CN(C3)C1)C2.[Cl-] [Dowicil 200]	–	–	sufficiently compatible	–
OCCCc1ccccc1 [3-phenyl-1-propanol]	sufficiently compatible	sufficiently compatible	–	–
OCCc1ccccc1 [phenethyl alcohol]	sufficiently compatible	sufficiently compatible	–	–
O=C([O-])CC(O)(CC(=O)[O-])C(=O)[O-].[Na+].[Na+].[Na+] [sodium citrate]	–	–	–	significantly improves the colour stability
CC1(C)C(=O)N(CO)C(=O)N1CO [Glydant XL 1000, 1,3-dimethylol-5,5-dimethylhydantoin]	sufficiently compatible	sufficiently compatible	–	–
benzalkonium chloride	sufficiently compatible	sufficiently compatible	–	–
COC(=O)c1ccc(O)cc1 [methylparaben]	–	–	sufficiently compatible	–
CC(C)=CCCC(C)=CCCC(C)=CCO [farnesol]	sufficiently compatible	sufficiently compatible	–	–
O=C1O[C@H]([C@@H](O)CO)C(O)=C1O [ascorbic acid]	sufficiently compatible	sufficiently compatible	–	–
